Source: US20120202296A1, “SYSTEM, METHOD, AND APPARATUS FOR MEASURING AFFINITY CONSTANTS” (The Trustees of Columbia University in the City of New York, priority 2011, published 2012)

Columns and labels:
[1] = test system: ds biotinylated-DNA (90 bp) containing an EcoR1 recognition sequence; test: Time-resolved second harmonic (SH) signal on adding EcoR1 to DNA-coated microparticles; assay type: binding; settings: PSC-DNA microparticles
From the text: A particular example of how to use the above quantification method and system was experimentally validated as follows. An experimental apparatus was used to measure a time-resolved SH signal that was similar to that described in Yan E C Y, Liu Y, Eisenthal K B (1998) “New method for determination of surface potential of microscopic particles by second harmonic generation.” J Phys Chem B 102:6331-6336 which is hereby incorporated by reference in its entirety. A Princeton Instruments CCD camera was used to acquire light samples. The fundamental laser frequency was centered at 810 nm with approximately 400 mW of average power and a pulse width of approximately 75 femtoseconds (10^−15 sec.; fs). […] Polystyrene carboxylate (PSC) microparticle-DNA bioconjugate particles were prepared in an analogous way to previous synthetic reports.
FIG. 1A is a figurative illustration of the resulting particles 6. A biotin binding protein 18, NeutrAvidin (NA), is linked to the PSC surface (diameter ¼ 1.0 μm, Invitrogen). A PSC-NA solution with a concentration of 5.6×10^9 particles/mL, was suspended in water at pH ¼ 7.5. To this solution ds biotinylated-DNA 12 (90 bp, Integrated DNA Technologies) containing an EcoR1 recognition sequence 8, which is 15 bp from the end attached to the microparticle, was added to a DNA concentration of 0.69 nM and incubated at 55° C. for 1 h. […]

[2] = test system: control DNA (6-bp EcoR1 recognition sequence altered); test: Time-resolved SH signal control experiment with DNA whose recognition sequence is altered; assay type: binding; settings: control DNA without EcoR1 recognition sequence

“EcoR1: restriction enzyme that binds its DNA recognition sequence, bends and cleaves the DNA” was tested, and the “jump of the SH signal when EcoR1 is added” value ([1]; 2 mM NaCl) was 9.5%, the “jump of the SH signal when EcoR1 is added” value ([1]; NaCl concentration 8.50 mM, NaCl in place of Mg2+) was 30% and the “jump in the SH signal when EcoR1 is added” value [2] was “did not show any jump in the SH signal”.
